{"source": "patent US20030113281A1", "about": "“Assay for identification of compounds that promote melanin production and retinoid-like compounds identified by said assay” (Galderma Research & Development, S.N.C., priority 1998, published 2003)", "tested_on": "normal human melanocytes", "assay": "Melanin content of normal human melanocytes, normalized to proliferation (MTS)", "format": "cell-based", "conditions": "5 day treatment, normal human melanocytes from neonatal skin", "method": "Normal human melanocytes from neonatal skin were used for the assay. For the primary screening, the cells were seeded simultaneously into 96-well plates and 24-well plates appropriately according to the surface area of the wells, and treated with the test compound for 5 days. The addition of the compound to the plates was done using a Robot to ensure accuracy (same amount in each well). At the end of 5 day treatment, the cells in the 96-well plate were treated with MTS solution and the plate was read at 490 nm to determine the effect of the compounds on the growth of the cells. The cells in the 24-well plates were rinsed with PBS, and then lysed with 1N NaOH, and the absorbence of alkali soluble melanin was measured at 405 nm.\nThe data from the 96-well plate was analyzed to determine the effect of each compound on the proliferation of the cells, and the data from the 24-well plate was used to determine the effect of the compound on the melanin content of the cells. The melanin content was then normalized to the proliferation of the cells."}
{"compound": "C=C(c1ccc(C(=O)O)cc1)c1ccc2c(c1)C(C)(C)CCC2(C)C", "note": "[CD No. 2771, 4-[1-(5,6.7,8-tetrahydro-5,5,8,8-tetramethyl-2-naphthyl)ethenyl]benzoic acid]", "values": [{"measurement": "Maximum Increase in Melanin Content (Normalized)", "setting": "at 2 μM", "value": 250, "unit": "% at 2 μM"}]}
{"compound": "Cc1cc2c(cc1-c1cccc(C=CC(=O)O)c1)C(C)(C)CCC2(C)C", "note": "[CD No. 2915, 3-[3-(3,5,5,8,8-pentamethyl-5.6,7.8-tetrahydro-naphthalen-2-yl)-phenyl]-acrylic acid]", "values": [{"measurement": "Maximum Increase in Melanin Content (Normalized)", "setting": "at 0.1 μM", "value": 165, "unit": "% at 0.1 μM"}]}
{"compound": "CC(=CC(=O)O)c1cccc(-c2cc3c(cc2C)C(C)(C)CCC3(C)C)c1", "note": "[CD No. 3206, 3-[3-(3,5.5,8,8-pentamethyl-5,6,7,8-tetrahydro-naphthalen-2-yl)-phenyl]-but-2-enoic acid]", "values": [{"measurement": "Maximum Increase in Melanin Content (Normalized)", "setting": "at 0.5 μM", "value": 198, "unit": "% at 0.5 μM"}]}
